Organism: Rattus norvegicus
Experiment: Open TG-GATES - Regimen: Single
Assay type: toxicity, organism-based, Sprague-Dawley
Design: regimen Single, gender Male, age 6 weeks
Conditions: in vivo, po, route gavage; for KIDNEY_L / KIDNEY_R / KIDNEY_TOTAL: tissue Kidney; for LIVER: tissue Liver; for ALP / ALT / CRE / DBIL / GLC / IP / K / Na / RALB / TBIL / TG / TP / gamma-GTP / BUN / PL: tissue Plasma
[1] = 0 mg/kg, 3 h, dose level Control
[2] = 0 mg/kg, 3 h, tissue Blood, dose level Control
[3] = 0 mg/kg, 6 h, dose level Control
[4] = 0 mg/kg, 6 h, tissue Blood, dose level Control
[5] = 0 mg/kg, 9 h, dose level Control
[6] = 0 mg/kg, 9 h, tissue Blood, dose level Control
[7] = 0 mg/kg, 24 h, dose level Control
[8] = 0 mg/kg, 24 h, tissue Blood, dose level Control
[9] = 3 mg/kg, 3 h, tissue Blood, dose level Low
[10] = 3 mg/kg, 6 h, tissue Blood, dose level Low
[11] = 3 mg/kg, 9 h, tissue Blood, dose level Low
[12] = 3 mg/kg, 24 h, tissue Blood, dose level Low

SMILES: CNCCC(Oc1ccc(C(F)(F)F)cc1)c1ccccc1.Cl (centres undefined) [FLUOXETINE HYDROCHLORIDE]
- TERMINAL_BW [1]: 216.5 g
- Bas [2]: 0%
- Eos [2]: 1%
- Ht [2]: 41.2%
- Lym [2]: 72.6%
- MCHC [2]: 32.1%
- Ret [2]: 8.8%
- WBC [2]: 83.4 x10_2/uL
- KIDNEY_L [1]: 0.9 g
- KIDNEY_R [1]: 0.9 g
- KIDNEY_TOTAL [1]: 1.9 g
- LIVER [1]: 10.4 g
- ALP [1]: 1343.2 IU/L
- ALT [1]: 37.8 IU/L
- CRE [1]: 0.4 mg/dL
- DBIL [1]: 0.014 mg/dL
- GLC [1]: 198 mg/dL
- IP [1]: 10.1 mg/dL
- K [1]: 4.9 meq/L
- Na [1]: 138.2 meq/L
- RALB [1]: 4.1 g/dL
- TBIL [1]: 0.056 mg/dL
- TG [1]: 81.8 mg/dL
- TP [1]: 5.7 g/dL
- gamma-GTP [1]: 0.4 IU/L
- TERMINAL_BW [3]: 217.6 g
- Bas [4]: 0%
- Eos [4]: 1%
- Ht [4]: 41.1%
- Lym [4]: 72%
- MCHC [4]: 32.2%
- Ret [4]: 6.9%
- WBC [4]: 98.6 x10_2/uL
- KIDNEY_L [3]: 1 g
- KIDNEY_R [3]: 1 g
- KIDNEY_TOTAL [3]: 2.1 g
- LIVER [3]: 9.3 g
- ALP [3]: 1497.6 IU/L
- ALT [3]: 35 IU/L
- BUN [3]: 9.2 mg/dL
- CRE [3]: 0.4 mg/dL
- DBIL [3]: 0.008 mg/dL
- GLC [3]: 191 mg/dL
- IP [3]: 9.8 mg/dL
- K [3]: 5 meq/L
- Na [3]: 137.3 meq/L
- PL [3]: 131.2 mg/dL
- RALB [3]: 3.8 g/dL
- TBIL [3]: 0.048 mg/dL
- TG [3]: 45.8 mg/dL
- TP [3]: 5.3 g/dL
- gamma-GTP [3]: 1 IU/L
- TERMINAL_BW [5]: 216.1 g
- Bas [6]: 0%
- Eos [6]: 1%
- Ht [6]: 40.2%
- Lym [6]: 66.4%
- MCHC [6]: 32.5%
- Ret [6]: 8%
- WBC [6]: 106.4 x10_2/uL
- KIDNEY_L [5]: 1 g
- KIDNEY_R [5]: 1 g
- KIDNEY_TOTAL [5]: 2 g
- LIVER [5]: 9.2 g
- ALP [5]: 1190.2 IU/L
- ALT [5]: 28.6 IU/L
- CRE [5]: 0.4 mg/dL
- DBIL [5]: 0.01 mg/dL
- GLC [5]: 188.2 mg/dL
- IP [5]: 10.2 mg/dL
- K [5]: 5.1 meq/L
- Na [5]: 139 meq/L
- PL [5]: 139.8 mg/dL
- RALB [5]: 3.8 g/dL
- TBIL [5]: 0.042 mg/dL
- TG [5]: 63 mg/dL
- TP [5]: 5.3 g/dL
- gamma-GTP [5]: 0.4 IU/L
- TERMINAL_BW [7]: 234.5 g
- Bas [8]: 0%
- Eos [8]: 1%
- Ht [8]: 39.6%
- Lym [8]: 76.4%
- MCHC [8]: 32.7%
- Ret [8]: 7%
- WBC [8]: 121.8 x10_2/uL
- KIDNEY_L [7]: 1 g
- KIDNEY_R [7]: 1 g
- KIDNEY_TOTAL [7]: 2 g
- ALP [7]: 1409.4 IU/L
- ALT [7]: 36.6 IU/L
- CRE [7]: 0.4 mg/dL
- DBIL [7]: 0.012 mg/dL
- GLC [7]: 194.6 mg/dL
- IP [7]: 8.1 mg/dL
- K [7]: 5.1 meq/L
- Na [7]: 138.3 meq/L
- RALB [7]: 4 g/dL
- TBIL [7]: 0.036 mg/dL
- TG [7]: 133.6 mg/dL
- TP [7]: 5.6 g/dL
- gamma-GTP [7]: 1 IU/L
- TERMINAL_BW (3 mg/kg, 3 h, dose level Low): 213 g
- Bas [9]: 0%
- Eos [9]: 1%
- Ht [9]: 41.8%
- Lym [9]: 76.6%
- MCHC [9]: 32.2%
- Ret [9]: 7.7%
- WBC [9]: 94.4 x10_2/uL
- KIDNEY_L (3 mg/kg, 3 h, dose level Low): 0.9 g
- KIDNEY_R (3 mg/kg, 3 h, dose level Low): 0.9 g
- KIDNEY_TOTAL (3 mg/kg, 3 h, dose level Low): 1.8 g
- LIVER (3 mg/kg, 3 h, dose level Low): 9.9 g
- ALP (3 mg/kg, 3 h, dose level Low): 1490.4 IU/L
- ALT (3 mg/kg, 3 h, dose level Low): 36.6 IU/L
- BUN (3 mg/kg, 3 h, dose level Low): 11.4 mg/dL
- CRE (3 mg/kg, 3 h, dose level Low): 0.4 mg/dL
- DBIL (3 mg/kg, 3 h, dose level Low): 0.012 mg/dL
- GLC (3 mg/kg, 3 h, dose level Low): 209 mg/dL
- IP (3 mg/kg, 3 h, dose level Low): 10 mg/dL
- K (3 mg/kg, 3 h, dose level Low): 4.5 meq/L
- Na (3 mg/kg, 3 h, dose level Low): 138 meq/L
- RALB (3 mg/kg, 3 h, dose level Low): 4.1 g/dL
- TBIL (3 mg/kg, 3 h, dose level Low): 0.042 mg/dL
- TG (3 mg/kg, 3 h, dose level Low): 85 mg/dL
- TP (3 mg/kg, 3 h, dose level Low): 5.8 g/dL
- gamma-GTP (3 mg/kg, 3 h, dose level Low): 0.2 IU/L
- TERMINAL_BW (3 mg/kg, 6 h, dose level Low): 215.1 g
- Bas [10]: 0%
- Eos [10]: 1%
- Ht [10]: 41.2%
- Lym [10]: 67.4%
- MCH [10]: 22 pg
- MCHC [10]: 32.5%
- Ret [10]: 6.8%
- WBC [10]: 80.2 x10_2/uL
- KIDNEY_L (3 mg/kg, 6 h, dose level Low): 0.9 g
- KIDNEY_R (3 mg/kg, 6 h, dose level Low): 0.9 g
- KIDNEY_TOTAL (3 mg/kg, 6 h, dose level Low): 1.8 g
- LIVER (3 mg/kg, 6 h, dose level Low): 9.5 g
- ALP (3 mg/kg, 6 h, dose level Low): 1275 IU/L
- ALT (3 mg/kg, 6 h, dose level Low): 36.8 IU/L
- BUN (3 mg/kg, 6 h, dose level Low): 10.2 mg/dL
- CRE (3 mg/kg, 6 h, dose level Low): 0.4 mg/dL
- DBIL (3 mg/kg, 6 h, dose level Low): 0.01 mg/dL
- GLC (3 mg/kg, 6 h, dose level Low): 196 mg/dL
- IP (3 mg/kg, 6 h, dose level Low): 10.3 mg/dL
- K (3 mg/kg, 6 h, dose level Low): 4.8 meq/L
- Na (3 mg/kg, 6 h, dose level Low): 137.7 meq/L
- RALB (3 mg/kg, 6 h, dose level Low): 3.9 g/dL
- TBIL (3 mg/kg, 6 h, dose level Low): 0.046 mg/dL
- TG (3 mg/kg, 6 h, dose level Low): 100 mg/dL
- TP (3 mg/kg, 6 h, dose level Low): 5.4 g/dL
- gamma-GTP (3 mg/kg, 6 h, dose level Low): 1 IU/L
- TERMINAL_BW (3 mg/kg, 9 h, dose level Low): 212.9 g
- Bas [11]: 0%
- Eos [11]: 1%
- Ht [11]: 40.1%
- Lym [11]: 69.2%
- MCHC [11]: 32.4%
- Ret [11]: 6.5%
- WBC [11]: 79.8 x10_2/uL
- KIDNEY_L (3 mg/kg, 9 h, dose level Low): 0.9 g
- KIDNEY_R (3 mg/kg, 9 h, dose level Low): 0.9 g
- KIDNEY_TOTAL (3 mg/kg, 9 h, dose level Low): 1.8 g
- LIVER (3 mg/kg, 9 h, dose level Low): 9.3 g
- ALP (3 mg/kg, 9 h, dose level Low): 1183.8 IU/L
- ALT (3 mg/kg, 9 h, dose level Low): 27.6 IU/L
- BUN (3 mg/kg, 9 h, dose level Low): 11.2 mg/dL
- CRE (3 mg/kg, 9 h, dose level Low): 0.4 mg/dL
- DBIL (3 mg/kg, 9 h, dose level Low): 0.01 mg/dL
- GLC (3 mg/kg, 9 h, dose level Low): 195.6 mg/dL
- IP (3 mg/kg, 9 h, dose level Low): 10.2 mg/dL
- K (3 mg/kg, 9 h, dose level Low): 5 meq/L
- Na (3 mg/kg, 9 h, dose level Low): 139.1 meq/L
- PL (3 mg/kg, 9 h, dose level Low): 136.8 mg/dL
- RALB (3 mg/kg, 9 h, dose level Low): 3.9 g/dL
- TBIL (3 mg/kg, 9 h, dose level Low): 0.036 mg/dL
- TG (3 mg/kg, 9 h, dose level Low): 59.2 mg/dL
- TP (3 mg/kg, 9 h, dose level Low): 5.5 g/dL
- gamma-GTP (3 mg/kg, 9 h, dose level Low): 0.4 IU/L
- TERMINAL_BW (3 mg/kg, 24 h, dose level Low): 223.4 g
- Bas [12]: 0%
- Eos [12]: 1%
- Ht [12]: 40.2%
- Lym [12]: 72%
- MCHC [12]: 32.5%
- Ret [12]: 7.1%
- WBC [12]: 86.8 x10_2/uL
- KIDNEY_L (3 mg/kg, 24 h, dose level Low): 1 g
- KIDNEY_R (3 mg/kg, 24 h, dose level Low): 1 g
- KIDNEY_TOTAL (3 mg/kg, 24 h, dose level Low): 2 g
- LIVER (3 mg/kg, 24 h, dose level Low): 10.5 g
- ALP (3 mg/kg, 24 h, dose level Low): 1597.4 IU/L
- ALT (3 mg/kg, 24 h, dose level Low): 35.6 IU/L
- BUN (3 mg/kg, 24 h, dose level Low): 16.4 mg/dL
- CRE (3 mg/kg, 24 h, dose level Low): 0.4 mg/dL
- DBIL (3 mg/kg, 24 h, dose level Low): 0.01 mg/dL
- GLC (3 mg/kg, 24 h, dose level Low): 194.8 mg/dL
- IP (3 mg/kg, 24 h, dose level Low): 8 mg/dL
- K (3 mg/kg, 24 h, dose level Low): 4.9 meq/L
- Na (3 mg/kg, 24 h, dose level Low): 139.1 meq/L
- RALB (3 mg/kg, 24 h, dose level Low): 3.9 g/dL
- TBIL (3 mg/kg, 24 h, dose level Low): 0.034 mg/dL
- TG (3 mg/kg, 24 h, dose level Low): 124.2 mg/dL
- TP (3 mg/kg, 24 h, dose level Low): 5.6 g/dL
- gamma-GTP (3 mg/kg, 24 h, dose level Low): 1 IU/L
- TERMINAL_BW (10 mg/kg, 3 h, dose level Middle): 225.1 g

Source: ChEMBL document CHEMBL3885861, “Open TG-GATES”
